This is an account of results in patent US4745196A, “Orally active phosphonyl hydroxyacyl prolines” (E. R. Squibb & Sons, Inc., priority 1986, dated 1988).

The subject of the experiment is angiotensin converting enzyme (ACE). Nature of the experiment: in vivo attenuation of angiotensin I pressor response after oral administration in conscious, normotensive rats. Particulars: maximum during three-hour period, mean of at least four rats. Here is the method:
The compounds of formula I were tested in vivo in conscious, normotensive rats. Angiotensin I given intravenously increases blood pressure due to conversion to angiotensin II via the angiotensin converting enzyme (ACE). ACE inhibition was reflected by the attenuation of an angiotensin I pressor response after compound administration. The in vivo testing procedure is described in greater detail by Rubin et al., "SQ14,225 (D-3-Mercapto-2-Methylpropanoyl-L-Proline), A Novel Orally Active Inhibitor Of Angiotensin I Converting Enzyme", J. Pharm. Exp. Therap., Vol. 204, p 271-280 (1978).
The inhibition of the angiotensin I pressor response is expressed as the percentage of the response to angiotensin I obtained before the test compound was administered, and was measured at regular intervals during a three-hour period following the administration of the test compound. The maximum percentage inhibition observed during this period is given in the table as a number from 0 to 100 percent. All results are the mean values obtained for testing of each compound in at least four rats. For compounds tested at more than one dose, it can be observed that increased amounts of compound administered lead to increased levels of inhibition.

Setting [1] is: oral dose 1.5 (dose unit not given).
Setting [2] is: oral dose 5 (dose unit not given).
Where [3] appears, read: oral dose 0.5 (dose unit not given), dilithium salt.
[4] abbreviates: oral dose 1.5 (dose unit not given), dilithium salt.
Where [5] appears, read: oral dose 5 (dose unit not given), dilithium salt.
Where [6] appears, read: oral dose 15 (dose unit not given).
Setting [7] is: oral dose 0.5 (dose unit not given).

Counter-ions that a name gives are not always drawn.

Turning to `NCCCC[C@H](OP(=O)(O)CCc1ccccc1)C(=O)N1CCC[C@H]1C(=O)O` [Example 1, (S)-1-[6-Amino-2-[[hydroxy(2-phenylethyl)phosphinyl]oxy]-1-oxohexyl]-L-proline, dilithium salt], the “Maximum Percent Inhibition of the angiotensin I pressor response” value (shortened to “Maximum Percent Inhibition”) runs as follows: under setting [1], 50.30%; under setting [2], 64.50%.
Take `NCCCC[C@H](OP(=O)(O)CCCc1ccccc1)C(=O)N1CCC[C@H]1C(=O)O` [Example 2, (S)-1-[6-Amino-2-[[hydroxy(3-phenylpropyl)phosphinyl]oxy]-1-oxohexyl]-L-proline]: the “Maximum Percent Inhibition” value turned out to be 32.30% under setting [1] and 66.70% under setting [2].
`NCCCC[C@H](OP(=O)(O)CCCCc1ccccc1)C(=O)N1CCC[C@H]1C(=O)O` [Example 3, (S)-1-[6-Amino-2-[[hydroxy(4-phenylbutyl)phosphinyl]oxy]-1-oxohexyl]-L-proline, dilithium salt]: the “Maximum Percent Inhibition” value turned out to be 20.90% under setting [3], 74.00% under setting [4], 91.00% under setting [5] and 97.10% under setting [6].
For `NCCCC[C@H](OP(=O)(O)CCCCc1ccccc1)C(=O)N1CCC[C@H]1C(=O)O` [Example 4, (S)-1-[6-Amino-2-[[hydroxy(4-phenylbutyl)phosphinyl]oxy]-1-oxohexyl]-L-proline], the “Maximum Percent Inhibition” value turned out to be 46.60% under setting [7], 69.00% under setting [1] and 89.90% under setting [2].
For `NCCCC[C@H](OP(=O)(O)CCCCc1ccc(F)cc1)C(=O)N1CCC[C@H]1C(=O)O` [Example 5, (S)-1-[6-Amino-2-[[[4-(4-fluorophenyl)butyl]hydroxyphosphinyl]oxy]-1-oxohexyl]-L-proline] the same measures were 22.20%, 69.00% and 80.50%.
As to `NCCCC[C@H](OP(=O)(O)CCCCCc1ccccc1)C(=O)N1CCC[C@H]1C(=O)O` [Example 6, (S)-1-[6-Amino-2-[[hydroxy(5-phenylpentyl)phosphinyl]oxy]-1-oxohexyl]-L-proline], under setting [2], the “Maximum Percent Inhibition” value came out at 64.70%.
On the same count and under the same terms, the result for `CCCCCP(=O)(O)O[C@@H](CCCCN)C(=O)N1CCC[C@H]1C(=O)O` [Example 7, 1-[(S)-6-Amino-2-[(hydroxypentylphosphinyl)oxy]-1-oxohexyl]-L-proline] reads 57.20%.
Consider `CCCCCCP(=O)(O)O[C@@H](CCCCN)C(=O)N1CCC[C@H]1C(=O)O` [Example 8, (S)-1-[6-Amino-2-[(hexylhydroxyphosphinyl)oxy]-1-oxohexyl]-L-proline, dilithium salt], for which the “Maximum Percent Inhibition” value was found to be 19.70% under setting [3]; 72.40% under setting [4]; 82.70% under setting [5]; 85.50% (oral dose 15 (dose unit not given), dilithium salt).
For `CCCCCCP(=O)(O)O[C@@H](CCCCN)C(=O)N1CCC[C@H]1C(=O)O` [Example 9, (S)-1-[6-Amino-2-[(hexylhydroxyphosphinyl)oxy]-1-oxohexyl]-L-proline], the “Maximum Percent Inhibition” value reads like this: under setting [7], 17.90%; under setting [1], 66.50%; under setting [2], 82.10%; under setting [6], 90.30%.
Turning to `CCCCCCCP(=O)(O)O[C@@H](CCCCN)C(=O)N1CCC[C@H]1C(=O)O` [Example 10, 1-[(S)-6-Amino-2-[(heptylhydroxyphosphinyl)oxy]-1-oxohexyl]-L-proline], the “Maximum Percent Inhibition” value was determined as 45.00% under setting [7], 66.00% under setting [1] and 75.00% under setting [2].
For the molecule `CCCCCCCCP(=O)(O)O[C@@H](CCCCN)C(=O)N1CCC[C@H]1C(=O)O` [Example 12, (S)-1-[6-Amino-2-[(octylhydroxyphosphinyl)oxy]-1-oxohexyl]-L-proline, dilithium salt], the “Maximum Percent Inhibition” value by setting is: under setting [7], 16.80%; under setting [1], 51.10%; under setting [2], 82.60%; under setting [6], 93.60%.
